Experimental data: patent US11161856B2 (H. Lundbeck A/S, priority 2017, dated 2021)
pIC50: −log10 of the molar value. Read-outs that look alike come from different tables or passages of the source.

Experiments:
Type in all cases: biochemical
[1] = target: T1, ABHD6 (Mus musculus, UniProt Q8R2Y0); experiment: In vitro competitive activity-based protein profiling, mouse brain proteome (ABHD6); details: mouse brain proteome; concentration not given (μM)
T1 construct: Brain; from tissue; host or cells: mouse brain proteome
T1 sequence (Q8R2Y0 1-336): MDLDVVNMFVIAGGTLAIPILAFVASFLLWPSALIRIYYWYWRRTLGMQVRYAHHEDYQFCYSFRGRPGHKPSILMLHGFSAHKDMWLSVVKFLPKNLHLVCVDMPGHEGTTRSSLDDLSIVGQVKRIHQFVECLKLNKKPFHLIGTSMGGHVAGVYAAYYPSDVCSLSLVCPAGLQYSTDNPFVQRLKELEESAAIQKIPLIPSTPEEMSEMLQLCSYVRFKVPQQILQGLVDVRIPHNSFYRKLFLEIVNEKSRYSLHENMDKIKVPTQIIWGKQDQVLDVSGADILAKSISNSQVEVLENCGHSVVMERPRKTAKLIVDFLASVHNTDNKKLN
Experimental: [The source words this procedure for another target and reports this target under the same test.] In Vitro Competitive Activity-Based Protein Profiling.
Proteomes (human prefrontal cortex or cell membrane fractions) (50 μL, 1.0 mg/mL total protein concentration) were preincubated with varying concentrations of inhibitors at 37° C. After 30 min, FP-Rh or HT-01 (1.0 μL, 50 μM in DMSO) was added and the mixture was incubated for another 30 min at room temperature. Reactions were quenched with SDS loading buffer (15 μL-4×) and run on SDS-PAGE.

[2] = target: T2, MGLL (Mus musculus, UniProt O35678); experiment: In vitro competitive activity-based protein profiling, mouse brain proteome (MGLL); details: concentration not given (μM)
T2 construct: Brain; from tissue; host or cells: mouse brain proteome
T2 sequence (O35678 1-303): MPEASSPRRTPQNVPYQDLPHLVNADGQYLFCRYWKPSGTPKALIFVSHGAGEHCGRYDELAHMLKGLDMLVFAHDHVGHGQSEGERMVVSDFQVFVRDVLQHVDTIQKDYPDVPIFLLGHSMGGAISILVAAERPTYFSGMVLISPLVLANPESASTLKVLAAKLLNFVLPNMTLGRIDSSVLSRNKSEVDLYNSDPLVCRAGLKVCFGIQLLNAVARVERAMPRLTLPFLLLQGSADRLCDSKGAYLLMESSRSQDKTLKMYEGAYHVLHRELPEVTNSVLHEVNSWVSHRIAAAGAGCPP

[3] = target: T3, MAGL (Homo sapiens, UniProt Q99685); experiment: In vitro competitive activity-based protein profiling (FP-Rh or HT-01 probe, gel-based); details: for % Inh MGLL PC3 (Human, μM) / % Inh MGLL PFC (Human, μM): concentration not given (μM)
T3 construct: Proteomes (human prefrontal cortex or cell membrane fractions); from tissue
T3 sequence (Q99685 1-303): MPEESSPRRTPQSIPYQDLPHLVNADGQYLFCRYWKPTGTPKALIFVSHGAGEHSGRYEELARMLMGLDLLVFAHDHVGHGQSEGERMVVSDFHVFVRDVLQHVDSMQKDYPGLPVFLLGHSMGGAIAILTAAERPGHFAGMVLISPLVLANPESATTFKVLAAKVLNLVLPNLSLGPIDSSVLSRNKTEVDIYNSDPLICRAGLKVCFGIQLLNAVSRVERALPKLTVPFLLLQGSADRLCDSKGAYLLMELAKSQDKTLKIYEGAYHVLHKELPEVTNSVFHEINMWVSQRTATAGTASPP
How it was run: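 Human prefrontal cortex or cell membrane proteomes (1.0 mg/mL total protein) were preincubated with varying inhibitor concentrations for 30 min at 37° C. FP-Rh or HT-01 probe (50 μM DMSO stock) was then added for 30 min at room temperature, and samples were quenched in SDS loading buffer and resolved by SDS-PAGE.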

[4] = prefrontal cortex (PFC) proteome
[5] = PC3 cell proteome, read-out: IC50 MGLL PC3 (Human)

CC(C)(C#Cc1ccccc1CN1CCCC12CCN(C(=O)OC(C(F)(F)F)C(F)(F)F)CC2)C(=O)O [Example 145, 4-{2-[(8-{[(1,1,1,3,3,3-Hexafluoropropan-2-yl)oxy]carbonyl}-1,8-diazaspiro[4.5]decan-1-yl)methyl]phenyl}-2,2-dimethylbut-3-ynoic acid]
% Inh ABHD6 Brain (Mouse, μM) [1]: # (# is ≤25%)
% Inh MGLL Brain (Mouse, μM) [2]: ### (### is ≥75%)
% Inh MGLL PC3 (Human, μM) ([3]; PC3 cell proteome): ### (### is ≥75%)

CC1(OCc2ccc(Cl)cc2C2(C(=O)O)CCCC2)CCN(C(=O)OC(C(F)(F)F)C(F)(F)F)CC1 [Example 146, 1-(5-Chloro-2-{[(1-{[(1,1,1,3,3,3-hexafluoropropan-2-yl)oxy]carbonyl}-4-methylpiperidin-4-yl)oxy]methyl}phenyl) cyclopentane-1-carboxylic acid]
% Inh ABHD6 Brain (Mouse, μM) [1]: ## (## is between 25 and 75%)
% Inh MGLL Brain (Mouse, μM) [2]: ### (### is ≥75%)
% Inh MGLL PC3 (Human, μM) ([3]; PC3 cell proteome): ### (### is ≥75%)

CC(C)(C#Cc1c(F)cccc1CN1CCCC12CCN(C(=O)OC(C(F)(F)F)C(F)(F)F)CC2)C(=O)O [Example 147, 4-{2-Fluoro-6-[(8-{[(1,1,1,3,3,3-hexafluoropropan-2-yl)oxy]carbonyl}-1,8-diazaspiro[4.5]decan-1-yl)methyl]phenyl}-2,2-dimethylbut-3-ynoic acid]
% Inh ABHD6 Brain (Mouse, μM) [1]: # (# is ≤25%)
% Inh MGLL Brain (Mouse, μM) [2]: ### (### is ≥75%)
% Inh MGLL PC3 (Human, μM) ([3]; PC3 cell proteome): ### (### is ≥75%)

O=C(OC(C(F)(F)F)C(F)(F)F)N1CC2(CCN(Cc3ccc(C(F)(F)F)cc3N3CCCC3)CC2)C1 [Example 150, 1,1,1,3,3,3-Hexafluoropropan-2-yl 7-(2-(pyrrolidin-1-yl)-4-(trifluoromethyl)benzyl)-2,7-diazaspiro[3.5]nonane-2-carboxylate]
% Inh ABHD6 Brain (Mouse, μM) [1]: ### (### is ≥75%)
% Inh MGLL Brain (Mouse, μM) [2]: # (# is ≤25%)
% Inh MGLL PFC (Human, μM) [3, 4]: ## (## is between 25 and 75%)

O=C(O)CN1CCC2(CCN(c3cc(C(F)(F)F)ccc3CN3CCCC34CCN(C(=O)OC(C(F)(F)F)C(F)(F)F)CC4)CC2)C1 [Example 153, 2-(8-(2-((8-(((1,1,1,3,3,3-Hexafluoropropan-2-yl)oxy)carbonyl)-1,8-diazaspiro[4.5]decan-1-yl)methyl)-5-(trifluoromethyl)phenyl)-2,8-diazaspiro[4.5]decan-2-yl)acetic acid]
% Inh ABHD6 Brain (Mouse, μM) [1]: # (# is ≤25%)
% Inh MGLL Brain (Mouse, μM) [2]: ### (### is ≥75%)
% Inh MGLL PFC (Human, μM) [3, 4]: ### (### is ≥75%)

O=C(O)CN1CCC2(CC1)CCN(c1cc(C(F)(F)F)ccc1CN1CCCC13CCN(C(=O)OC(C(F)(F)F)C(F)(F)F)CC3)C2 [Example 154, 2-(2-(2-((8-(((1,1,1,3,3,3-Hexafluoropropan-2-yl)oxy)carbonyl)-1,8-diazaspiro[4.5]decan-1-yl)methyl)-5-(trifluoromethyl)phenyl)-2,1-diazaspiro[4.5]decan-8-yl)acetic acid]
% Inh ABHD6 Brain (Mouse, μM) [1]: # (# is ≤25%)
% Inh MGLL Brain (Mouse, μM) [2]: ### (### is ≥75%)
% Inh MGLL PFC (Human, μM) [3, 4]: ### (### is ≥75%)

O=C(O)CN1CC2CN(c3cc(C(F)(F)F)ccc3CN3CCCC34CCN(C(=O)OC(C(F)(F)F)C(F)(F)F)CC4)CC2C1 (centres unmarked) [Example 155]
% Inh ABHD6 Brain (Mouse, μM) [1]: # (# is ≤25%)
% Inh MGLL Brain (Mouse, μM) [2]: ### (### is ≥75%)
% Inh MGLL PFC (Human, μM) [3, 4]: ### (### is ≥75%)

O=C(O)CN1CCC2(CC1)CN(c1cc(C(F)(F)F)ccc1CN1CCCC13CCN(C(=O)OC(C(F)(F)F)C(F)(F)F)CC3)C2 [Example 156, 2-(2-(2-((8-(((1,1,1,3,3,3-Hexafluoropropan-2-yl)oxy)carbonyl)-1,8-diazaspiro[4.5]decan-1-yl)methyl)-5-(trifluoromethyl)phenyl)-2,7-diazaspiro[3.5]nonan-7-yl)acetic acid]
% Inh ABHD6 Brain (Mouse, μM) [1]: # (# is ≤25%)
% Inh MGLL Brain (Mouse, μM) [2]: ### (### is ≥75%)
% Inh MGLL PFC (Human, μM) [3, 4]: ### (### is ≥75%)

O=C(O)CN1CC2(CCN(c3cc(C(F)(F)F)ccc3CN3CCCC34CCN(C(=O)OC(C(F)(F)F)C(F)(F)F)CC4)CC2)C1 [Example 157, 2-(7-(2-((8-(((1,1,1,3,3,3-Hexafluoropropan-2-yl)oxy)carbonyl)-1,8-diazaspiro[4.5]decan-1-yl)methyl)-5-(trifluoromethyl)phenyl)-2,7-diazaspiro[3.5]nonan-2-yl)acetic acid]
% Inh ABHD6 Brain (Mouse, μM) [1]: # (# is ≤25%)
% Inh MGLL Brain (Mouse, μM) [2]: ### (### is ≥75%)
% Inh MGLL PFC (Human, μM) [3, 4]: ### (### is ≥75%)

O=C(O)CN1CC2(CCN(c3cc(CN4CCCC45CCN(C(=O)OC(C(F)(F)F)C(F)(F)F)CC5)cc(C(F)(F)F)c3)CC2)C1 [Example 158, 2-(7-(3-((8-(((1,1,1,3,3,3-Hexafluoropropan-2-yl)oxy)carbonyl)-1,8-diazaspiro[4.5]decan-1-yl)methyl)-5-(trifluoromethyl)phenyl)-2,7-diazaspiro[3,5]nonan-2-yl)acetic acid]
% Inh ABHD6 Brain (Mouse, μM) [1]: # (# is ≤25%)
% Inh MGLL Brain (Mouse, μM) [2]: ### (### is ≥75%)
% Inh MGLL PFC (Human, μM) [3, 4]: ### (### is ≥75%)

O=C(O)C1CCCN1C1CCN(c2cc(C(F)(F)F)ccc2CN2CCCC23CCN(C(=O)OC(C(F)(F)F)C(F)(F)F)CC3)CC1 (centres unmarked) [Example 159]
% Inh ABHD6 Brain (Mouse, μM) [1]: # (# is ≤25%)
% Inh MGLL Brain (Mouse, μM) [2]: ### (### is ≥75%)
% Inh MGLL PC3 (Human, μM) ([3]; PC3 cell proteome): ### (### is ≥75%)
pIC50 ([3]; prefrontal cortex (PFC) proteome, read-out: IC50 MGLL PFC (Human)): > 7.00

O=C(O)[C@H]1CCCN1C1CCN(c2cc(C(F)(F)F)ccc2CN2CCCC23CCN(C(=O)OC(C(F)(F)F)C(F)(F)F)CC3)CC1 [Example 160, (1-(2-((8-(((1,1,1,3,3,3-Hexafluoropropan-2-yl)oxy)carbonyl)-1,8-diazaspiro[4.5]decan-l-yl)methyl)-5-(trifluoromethyl)phenyl)piperidin-4-yl)-D-proline]
% Inh ABHD6 Brain (Mouse, μM) [1]: # (# is ≤25%)
% Inh MGLL Brain (Mouse, μM) [2]: ### (### is ≥75%)
% Inh MGLL PC3 (Human, μM) ([3]; PC3 cell proteome): ### (### is ≥75%)
pIC50 [3, 5]: > 7.00

CN(Cc1ccc(C(F)(F)F)cc1N1CCC(N2CCC[C@H]2C(=O)O)CC1)C1(C)CCN(C(=O)OC(C(F)(F)F)C(F)(F)F)CC1 [Example 161, (1-(2-(((1-(((1,1,1,3,3,3-Hexafluoropropan-2-yl)oxy)carbonyl)-4-methylpiperidin-4-yl)(methyl)ainino)methyl)-5-(trifluoromethyl)phenyl)piperidin-4-yl)proline]
% Inh ABHD6 Brain (Mouse, μM) [1]: ### (### is ≥75%)
% Inh MGLL Brain (Mouse, μM) [2]: ### (### is ≥75%)
% Inh MGLL PC3 (Human, μM) ([3]; PC3 cell proteome): ### (### is ≥75%)
pIC50 [3, 5]: > 7.00

CN(Cc1ccc(C(F)(F)F)cc1N1CCC(N2CCC[C@@H]2C(=O)O)CC1)C1(C)CCN(C(=O)OC(C(F)(F)F)C(F)(F)F)CC1 [Example 162, (1-(2-(((1-(((1,1,1,3,3,3-Hexafluoropropan-2-yl)oxy)carbonyl)-4-methylpiperidin-4-yl)(methyl)amino)methyl)-5-(trifluoromethyl)phenyl)piperidin-4-yl)-D-proline]
% Inh ABHD6 Brain (Mouse, μM) [1]: # (# is ≤25%)
% Inh MGLL Brain (Mouse, μM) [2]: ### (### is ≥75%)
% Inh MGLL PC3 (Human, μM) ([3]; PC3 cell proteome): ### (### is ≥75%)
pIC50 [3, 5]: > 7.00

CN(Cc1ccc(C(F)(F)F)cc1N1CCC(N2CCC[C@H]2C(=O)O)CC1)C1(C)CCN(C(=O)OC(C(F)(F)F)C(F)(F)F)CC1 [Example 163, (1-(2-(((1-(((1,1,1,3,3,3-Hexafluoropropan-2-yl)oxy)carbonyl)-4-methylpiperidin-4-yl)(methyl)amino)methyl)-5-(trifluoromethyl)phenyl)piperidin-4-yl)-L-proline]
% Inh ABHD6 Brain (Mouse, μM) [1]: # (# is ≤25%)
% Inh MGLL Brain (Mouse, μM) [2]: ### (### is ≥75%)
% Inh MGLL PC3 (Human, μM) ([3]; PC3 cell proteome): ### (### is ≥75%)
pIC50 [3, 5]: > 7.00
